From US10829520B2, “Beta-hairpin peptidomimetics” (POLYPHOR AG, priority 2015, dated 2020) come the findings set out here.

SMILES strings stand for the structures. Where two headings read alike, the source gives them in different places. Where a SMILES comes first, the peptide text is derived from it. Bridges are numbered along the chain shown (N, C = ends). [ ]: non-standard residue; d: D form. Tle = CC(C)(C)[C@H](N)C(=O)O; NMeC = CN[C@@H](CS)C(=O)O; dDab = NCC[C@@H](N)C(=O)O; Nle = CCCC[C@H](N)C(=O)O; Orn = NCCC[C@H](N)C(=O)O; Dab = NCC[C@H](N)C(=O)O; Dap = NC[C@H](N)C(=O)O; Sar = CNCC(=O)O Some results are limits rather than exact numbers.

Format in all cases: cell-based
Data set [1] concerns Acinetobacter baumannii 872842.
Data set [2] concerns Acinetobacter baumannii DSM 30008. The method, boiled down:
(§1)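 Read-out is the minimal inhibitory concentration in μg/mL, taken as the lowest peptide level without visible growth after 18-20 h at 35° C. Testing followed CLSI broth microdilution in cation-adjusted Mueller-Hinton II broth plus 0.002% Polysorbate 80, with roughly 10^6 CFU/mL.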

Data set [3] has as its system Escherichia coli 926415.
For data set [4], the system named is Escherichia coli ATCC 25922. In a few lines:
as §1

Data set [5] relates to Klebsiella pneumoniae 968733.
The subject of data set [6] is Klebsiella pneumoniae SSI #3010. The method, boiled down: as §1
Data set [7] concerns Pseudomonas aeruginosa ATCC 27853. In a few lines:
as §1

Data set [8] concerns human red blood cells (hRBC). Description: Hemolysis of human red blood cells. Particulars: 100 μg/mL. In a few lines: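 Hemolysis was read as supernatant absorbance at 540 nm and expressed as a percentage of Triton X-100 (2.5%) lysis. Washed human red cells (20% v/v) had been exposed to each peptide at 100 μg/mL for 1 h at 37° C.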
[9] abbreviates: clinical isolate, Mueller-Hinton II broth, P-80 0.002% present.

In the case of `CC(C)C[C@@H]1NC(=O)[C@@H](CC(C)C)NC(=O)[C@H](CCN)NC(=O)[C@@H](NC(=O)[C@H](CCN)NC(=O)CN(C)C(=O)[C@@H]2CSSC[C@H](N)C(=O)N[C@@H](Cc3c[nH]c4ccccc34)C(=O)N[C@@H](CCN)C(=O)N[C@@H](C(C)C)C(=O)N[C@H]3CSSC[C@H](NC(=O)[C@H](CC(C)C)NC(=O)[C@@H]4CCCN4C(=O)[C@H]4CCCN4C(=O)[C@H](CO)NC3=O)C(=O)N[C@@H](Cc3ccc(O)cc3)C(=O)N[C@@H](CCN)C(=O)N[C@@H](CCCN)C(=O)N2)CCNC(=O)[C@H]([C@@H](C)O)NC(=O)[C@H](CCN)NC(=O)[C@H](CCN)NC1=O` [Ex. 212] (H-CW[Dab]VCS[dP]PLCY[Dab][Orn]C[Sar][Dab][Dab][Dab][dL]L[Dab][Dab]T; disulfide 1-14, 5-10; lactam 17-C), in data set [1] (setting [9]), the “Acinetobacter baumannii 872842 MIC” value worked out at 1 µg/mL. Further, the “Acinetobacter baumannii DSM 30008 MIC” value in data set [2] (Mueller-Hinton II broth) was 1 µg/mL. In addition, the “Escherichia coli 926415 MIC” value in data set [3] (setting [9]) was determined as 1 µg/mL. Further, in data set [4] (Mueller-Hinton II broth), the “Escherichia coli ATCC 25922 MIC” value was determined as 0.5 µg/mL. Also, in data set [5] (setting [9]), the “Klebsiella pneumoniae 968733 MIC” value turned out to be 4 µg/mL. In addition, in data set [6] (Mueller-Hinton II broth), the “Klebsiella pneumoniae SSI #3010 MIC” value came out at 2 µg/mL. Besides, the “Pseudomonas aeruginosa ATCC 27853 MIC” value in data set [7] (Mueller-Hinton II broth) turned out to be 0.5 µg/mL. Also, the “Hemolysis at 100 μg/mL” value in data set [8] (20% hRBC, 1 h at 37° C.) is reported as 1%.
For the compound `CC(C)C[C@@H]1NC(=O)[C@@H](CC(C)C)NC(=O)[C@H](CCN)NC(=O)[C@@H](NC(=O)[C@H](CCN)NC(=O)CN(C)C(=O)[C@@H]2CSSC[C@H](N)C(=O)N[C@@H](Cc3c[nH]c4ccccc34)C(=O)N[C@@H](CCN)C(=O)N[C@@H](C(C)C)C(=O)N[C@H]3CSSC[C@H](NC(=O)[C@H](CC(C)C)NC(=O)[C@@H]4CCCN4C(=O)[C@H]4CCCN4C(=O)[C@H](Cc4ccc(O)cc4)NC3=O)C(=O)N[C@@H](Cc3ccc(O)cc3)C(=O)N[C@@H](CCN)C(=O)N[C@@H](CCCN)C(=O)N2)CCNC(=O)[C@H]([C@@H](C)O)NC(=O)[C@H](CCN)NC(=O)[C@H](CCN)NC1=O` [Ex. 213] (H-CW[Dab]VCY[dP]PLCY[Dab][Orn]C[Sar][Dab][Dab][Dab][dL]L[Dab][Dab]T; disulfide 1-14, 5-10; lactam 17-C), the “Acinetobacter baumannii 872842 MIC” value in data set [1] (setting [9]) stood at 0.5 µg/mL. For the same compound, the “Acinetobacter baumannii DSM 30008 MIC” value in data set [2] (Mueller-Hinton II broth) was 0.5 µg/mL. For the same compound, the “Escherichia coli 926415 MIC” value in data set [3] (setting [9]) is 0.5 µg/mL. Moreover, the “Escherichia coli ATCC 25922 MIC” value in data set [4] (Mueller-Hinton II broth) came out at 0.125 µg/mL. Further, the “Klebsiella pneumoniae 968733 MIC” value in data set [5] (setting [9]) was 1 µg/mL. Also, the “Klebsiella pneumoniae SSI #3010 MIC” value in data set [6] (Mueller-Hinton II broth) came out at 0.5 µg/mL. For the same compound, the “Pseudomonas aeruginosa ATCC 27853 MIC” value in data set [7] (Mueller-Hinton II broth) is 0.5 µg/mL. Further, the “Hemolysis at 100 μg/mL” value in data set [8] (20% hRBC, 1 h at 37° C.) came to 3%.
`CCCC[C@@H]1NC(=O)[C@@H]2CCCN2C(=O)[C@H]2CCCN2C(=O)[C@H](CO)NC(=O)[C@H](CC(N)=O)NC(=O)[C@H](C(C)(C)C)NC(=O)[C@H](CCN)NC(=O)[C@H](Cc2c[nH]c3ccccc23)NC(=O)[C@@H](NC)CSSC[C@@H](C(=O)N(C)CC(=O)N[C@H](CCN)C(=O)N[C@@H](CCN)C(=O)N[C@H]2CCNC(=O)[C@H]([C@@H](C)O)NC(=O)[C@H](CCN)NC(=O)[C@H](CCN)NC(=O)[C@H](CC(C)C)NC(=O)[C@@H](CC(C)C)NC(=O)[C@H](CCN)NC2=O)NC(=O)[C@H](CCCN)NC(=O)[C@H](CCN)NC(=O)[C@H](Cc2ccc(O)cc2)NC(=O)[C@H](CN)NC1=O` [Ex. 214] (H-[NMeC]W[Dab][Tle]NS[dP]P[Nle][Dap]Y[Dab][Orn]C[Sar][dDab][Dab][Dab][Dab][dL]L[Dab][Dab]T; disulfide 1-14; lactam 18-C): in data set [1] (872842), the “Acinetobacter baumannii 872842 MIC” value was 0.5 µg/mL. Further, the “Acinetobacter baumannii DSM 30008 MIC” value in data set [2] (DSM 30008) was found to be 2 µg/mL. Further, the “Escherichia coli 926415 MIC” value in data set [3] (926415) is 2 µg/mL. Moreover, the “Escherichia coli ATCC 25922 MIC” value in data set [4] (ATCC 25922) was 0.5 µg/mL. In data set [5] (968733), the “Klebsiella pneumoniae 968733 MIC” value was determined as 8 µg/mL. Moreover, the “Klebsiella pneumoniae SSI #3010 MIC” value in data set [6] (SSI #3010) stood at 1 µg/mL. Besides, the “Pseudomonas aeruginosa ATCC 27853 MIC” value in data set [7] (ATCC 27853) was found to be 0.5 µg/mL. For the same compound, the “Hemolysis at 100 μg/mL” value in data set [8] (red cells of human, 1 h) is reported as 1%.
For `CCCC[C@@H]1NC(=O)[C@@H]2CCCN2C(=O)[C@H]2CCCN2C(=O)[C@H](CO)NC(=O)[C@H](C)NC(=O)[C@H](C(C)(C)C)NC(=O)[C@H](CCN)NC(=O)[C@H](Cc2c[nH]c3ccccc23)NC(=O)[C@@H](N)CSSC[C@@H](C(=O)N[C@H](CCN)C(=O)N[C@H]2CCN(C)C(=O)[C@H]([C@@H](C)O)NC(=O)[C@H](CCN)NC(=O)[C@H](CCN)NC(=O)[C@H](CC(C)C)NC(=O)[C@@H](Cc3ccccc3)NC(=O)[C@H](CCN)NC2=O)NC(=O)[C@H](CCCN)NC(=O)[C@H](CCN)NC(=O)[C@H](Cc2ccc(O)cc2)NC(=O)[C@H](CO)NC1=O` [Ex. 215], the “Acinetobacter baumannii 872842 MIC” value in data set [1] (872842) is 1 µg/mL. In data set [2] (DSM 30008), the “Acinetobacter baumannii DSM 30008 MIC” value amounted to 0.25 µg/mL. In data set [3] (926415), the “Escherichia coli 926415 MIC” value was 0.25 µg/mL. In data set [4] (ATCC 25922), the “Escherichia coli ATCC 25922 MIC” value is 0.25 µg/mL. Besides, in data set [5] (968733), the “Klebsiella pneumoniae 968733 MIC” value stood at 0.5 µg/mL. The “Klebsiella pneumoniae SSI #3010 MIC” value in data set [6] (SSI #3010) was 0.25 µg/mL. In addition, the “Pseudomonas aeruginosa ATCC 27853 MIC” value in data set [7] (ATCC 27853) was 1 µg/mL. Further, the “Hemolysis at 100 μg/mL” value in data set [8] (red cells of human, 1 h) is listed as under 1%.
Take `CCCC[C@@H]1NC(=O)[C@@H]2CCCN2C(=O)[C@H]2CCCN2C(=O)[C@H](CO)NC(=O)[C@H](C)NC(=O)[C@H](C(C)(C)C)NC(=O)[C@H](CCN)NC(=O)[C@H](Cc2c[nH]c3ccccc23)NC(=O)[C@@H](N)CSSC[C@@H](C(=O)N[C@H](CCN)C(=O)N[C@H]2CCN(C)C(=O)[C@H](C(C)C)NC(=O)[C@H](CCN)NC(=O)[C@H](CCN)NC(=O)[C@H](CC(C)C)NC(=O)[C@@H](Cc3ccccc3)NC(=O)[C@H](CCN)NC2=O)NC(=O)[C@H](CCCN)NC(=O)[C@H](CCN)NC(=O)[C@H](Cc2ccc(O)cc2)NC(=O)[C@H](CO)NC1=O` [Ex. 216]: the “Acinetobacter baumannii 872842 MIC” value in data set [1] (872842) came out at 0.5 µg/mL. In addition, the “Acinetobacter baumannii DSM 30008 MIC” value in data set [2] (DSM 30008) worked out at 0.125 µg/mL. The “Escherichia coli 926415 MIC” value in data set [3] (926415) came out at 0.0625 µg/mL. In addition, in data set [4] (ATCC 25922), the “Escherichia coli ATCC 25922 MIC” value came out at 0.125 µg/mL. For the same compound, the “Klebsiella pneumoniae 968733 MIC” value in data set [5] (968733) came to 0.25 µg/mL. In addition, the “Klebsiella pneumoniae SSI #3010 MIC” value in data set [6] (SSI #3010) worked out at 0.125 µg/mL. In addition, the “Pseudomonas aeruginosa ATCC 27853 MIC” value in data set [7] (ATCC 27853) came to 0.5 µg/mL. Also, the “Hemolysis at 100 μg/mL” value in data set [8] (red cells of human, 1 h) is 1%.
